Data reported in patent US20260008862A1, “Bispecific Anti-BCMA x Anti-CD3 Antibodies and Uses Thereof” (Regeneron Pharmaceuticals, Inc., priority 2018, published 2026).

Experiments:
[1] = system: Jurkat/NFATLuc.3C7 cells + MM1-S cells; test: Jurkat/NFATLuc reporter bioassay with MM1-S cells; assay type: cell-based; details: highest RLU / lowest RLU
Protocol: Activity of the anti-BCMA×anti-CD3 bispecific antibodies were assessed in a Jurkat/NFATLuc reporter bioassay utilizing several cell lines with varying levels of BCMA surface expression. The Jurkat cells were engineered to express an NFAT-luciferase reporter (Jurkat/NFATLuc.3C7), and 50,000 Jurkat reporter cells were combined with 50,000 BCMA positive (Daudi, MM1-S, NCI-H929, OPM-2, RPMI-8226, MOLP-8, or Raji) or BCMA negative (HEK293) cells in Thermo Nunclon delta 96 well white microwell plates (Thermo Scientific, Cat #136102) in 50 ul of assay media (RPMI media with 10% FBS and 1% P/S/G). Three-fold serial dilutions of the BCMA×CD3 bispecific antibodies (mAb25441 D or mAb25442D), or a bivalent anti-BCMA antibody (mAb21581) were immediately added in 50 μL of assay buffer. The plates were gently agitated and incubated in a 37° C., 5% CO2 incubator for 4-6 hours. NFAT-Luciferase activity was determined using Promega One-Glo (Cat #E6130) and a Perkin Elmer Envision plate reader. RLU were plotted in GraphPad Prism using a four-parameter logistic equation over a 12-point response curve to calculate EC50 values. […] The signal to noise (S:N) is determined by taking the ratio of the highest RLU on the curve to the lowest.

[2] = system: BCMA+ OPM-2-luciferase tumors; test: OPM-2-luciferase intravenous xenogenic tumor model, BLI (Example 15); assay type: in vivo, mouse
Protocol: (§1) To determine the in vivo efficacy of anti-BCMA×anti-CD3 bispecific antibodies (Abs), a xenogenic tumor study was performed. On day 0, immunodeficient NOD.Cg-Prkdc^scidIl2rg^tm1Wji/SzJ (NSG) mice were intravenously administered 2×10^6 BCMA^+ OPM-2 human multiple myeloma tumor cells that were engineered to also express firefly luciferase (OPM-2-luciferase cells). On day 10, the mice were intraperitoneally injected with 4×10^6 human peripheral blood mononuclear cells (PBMC) from a normal, healthy donor. […] The mice were administered these Abs twice more on days 25 and 28, for a total of three doses. Tumor growth was assessed through day 61 by measuring tumor bioluminescence (BLI) in anesthetized animals. As a positive control, a group of mice (n=5) was given only OPM-2-luciferase cells, but not PBMC or antibody.
as §1, with “Implantation and measurement” for “To determine the in vivo efficacy”, “of” for “of anti-BCMA×anti-CD3 bispecific antibodies (Abs), a”, “tumors:” for “tumor study was performed.”
Measurement of xenogenic tumor growth: BLI imaging was used to measure tumor burden. Mice were injected IP with 150 mg/kg of the luciferase substrate D-luciferin suspended in PBS. Five minutes after this injection, BLI imaging of the mice was performed under isoflurane anesthesia using the Xenogen IVIS system. Image acquisition was carried out with the field of view at D, subject height of 1.5 cm, and medium binning level with automatic exposure time determined by the Living Image Software. BLI signals were extracted using Living Image software: regions of interest were drawn around each tumor mass and photon intensities were recorded as p/s/cm2/sr.

[3] = system: BCMA-expressing NCI-H929 tumors; test: NCI-H929 + PBMC xenogenic tumor model, immediate treatment, dose response (Example 11); assay type: in vivo, mouse
Protocol: To determine the in vivo efficacy of anti-BCMA×anti-CD3 bispecific antibodies (Abs), a xenogenic tumor study was performed. Immunodeficient NOD.Cg-Prkdc^scidIl2rg^tm1Wji/SzJ (NSG) mice were subcutaneously implanted with a mixture of 10×10^6 BCMA-expressing NCI-H929 human multiple myeloma tumor cells and 0.5×10^6 human peripheral blood mononuclear cells (PBMC) isolated from a normal, healthy donor. […] The mice were administered these Abs twice per week for a total of seven doses, and tumor growth was assessed over 60 days. While BCMA^+ NCI-H929 tumors grew similarly in the vehicle- and CD3-binding control-treated mice, both anti-BCMA×anti-CD3 Abs that were tested prevented the growth of tumors in a dose-dependent manner in vivo.
Implantation and measurement of xenogenic tumors: NSG mice were subcutaneously implanted with a mixture of 10×10^6 BCMA-expressing NCI-H929 multiple myeloma cells and 0.5×10^6 PBMC derived from a normal, healthy donor. […] The mice were administered Abs twice per week for a total of seven doses. Tumor growth was measured with calipers twice per week for the duration of the experiment.
Calculation of xenogenic tumor growth and inhibition: In order to determine tumor volume by external caliper, the greatest longitudinal diameter (length in mm) and the greatest transverse diameter (width in mm) were determined. Tumor volumes based on caliper measurements were calculated by the formula: Volume (mm^3)=(length×width^2)/2.

## REGN5459: anti-BCMA×anti-CD3 bispecific antibody: BCMA HCVR of mAb21581 (SEQ 66), CD3 HCVR of mAb7221G20 (SEQ 98), common LCVR SEQ 82
[1]
  S:N: 120
[2]; 0.4 mg/kg group, 5 days post-implantation (before first dose on day 21)
  Radiance [p/s/cm2^2/sr] 5 days post-implantation (mean ± SEM): 5.09E+05 ± 3.56E+04 p/s/cm2^2/sr
[2]; 0.4 mg/kg group, 11 days post-implantation (before first dose on day 21)
  Radiance [p/s/cm2^2/sr] 11 days post-implantation (mean ± SEM): 6.45E+05 ± 2.39E+04 p/s/cm2^2/sr
[2]; 0.4 mg/kg group, 20 days post-implantation (before first dose on day 21)
  Radiance [p/s/cm2^2/sr] 20 days post-implantation (mean ± SEM): 2.13E+06 ± 1.69E+05 p/s/cm2^2/sr
[2]; 0.4 mg/kg on days 21, 25 and 28
  tumor burden (in words): reduced tumor burdens to background levels in the majority of animals
[2]; 0.4 mg/kg, 26 days post-implantation
  Radiance [p/s/cm2^2/sr] 26 days post-implantation (mean ± SEM): 1.28E+06 ± 7.36E+05 p/s/cm2^2/sr
[2]; 0.4 mg/kg, 31 days post-implantation
  Radiance [p/s/cm2^2/sr] 31 days post-implantation (mean ± SEM): 1.98E+06 ± 1.36E+06 p/s/cm2^2/sr
[2]; 0.4 mg/kg, 34 days post-implantation
  Radiance [p/s/cm2^2/sr] 34 days post-implantation (mean ± SEM): 4.24E+06 ± 3.69E+06 p/s/cm2^2/sr
[2]; 0.4 mg/kg, 38 days post-implantation
  Radiance [p/s/cm2^2/sr] 38 days post-implantation (mean ± SEM): 3.21E+06 ± 2.52E+06 p/s/cm2^2/sr
[2]; 0.4 mg/kg, 40 days post-implantation
  Radiance [p/s/cm2^2/sr] 40 days post-implantation (mean ± SEM): 3.84E+06 ± 3.34E+06 p/s/cm2^2/sr
[2]; 0.4 mg/kg, 47 days post-implantation
  Radiance [p/s/cm2^2/sr] 47 days post-implantation (mean ± SEM): 7.34E+05 ± 2.62E+04 p/s/cm2^2/sr
[2]; 0.4 mg/kg, 54 days post-implantation
  Radiance [p/s/cm2^2/sr] 54 days post-implantation (mean ± SEM): 6.41E+05 ± 5.96E+04 p/s/cm2^2/sr
[2]; 0.4 mg/kg, 61 days post-implantation
  Radiance [p/s/cm2^2/sr] 61 days post-implantation (mean ± SEM): 6.03E+05 ± 5.29E+04 p/s/cm2^2/sr
[3]; 0.04 mg/kg
  Average Tumor Size (mm3) ± SEM on Day 4: 33.0 ± 4.4 mm3
  Average Tumor Size (mm3) ± SEM on Day 7: 8.4 ± 4.0 mm3
  Average Tumor Size (mm3) ± SEM on Day 12: 0 ± 0 mm3
  Average Tumor Size (mm3) ± SEM on Day 19: 23.1 ± 23.1 mm3
  Average Tumor Size (mm3) ± SEM on Day 22: 69.5 ± 69.5 mm3
  Average Tumor Size (mm3) ± SEM on Day 26: 156.7 ± 156.7 mm3
  Average Tumor Size (mm3) ± SEM on Day 29: 226.6 ± 226.6 mm3
[3]; 0.4 mg/kg
  Average Tumor Size (mm3) ± SEM on Day 4: 19.6 ± 4.4 mm3
  Average Tumor Size (mm3) ± SEM on Day 12: 0 ± 0 mm3
  Average Tumor Size (mm3) ± SEM on Day 15: 0 ± 0 mm3
  Average Tumor Size (mm3) ± SEM on Day 19: 0 ± 0 mm3
  Average Tumor Size (mm3) ± SEM on Day 22: 0 ± 0 mm3
  Average Tumor Size (mm3) ± SEM on Day 26: 0 ± 0 mm3
  Average Tumor Size (mm3) ± SEM on Day 29: 0 ± 0 mm3
  Average Tumor Size (mm3) ± SEM on Day 34: 0 ± 0 mm3
  Average Tumor Size (mm3) ± SEM on Day 39: 0 ± 0 mm3
  Average Tumor Size (mm3) ± SEM on Day 42: 0 ± 0 mm3
  Average Tumor Size (mm3) ± SEM on Day 46: 0 ± 0 mm3
  Average Tumor Size (mm3) ± SEM on Day 55: 0 ± 0 mm3
  Average Tumor Size (mm3) ± SEM on Day 60: 0 ± 0 mm3
[3]; 4 mg/kg
  Average Tumor Size (mm3) ± SEM on Day 4: 21.8 ± 3.4 mm3
  Average Tumor Size (mm3) ± SEM on Day 7: 8.0 ± 4.3 mm3
  Average Tumor Size (mm3) ± SEM on Day 12: 1.7 ± 1.7 mm3
  Average Tumor Size (mm3) ± SEM on Day 15: 0 ± 0 mm3
  Average Tumor Size (mm3) ± SEM on Day 19: 0 ± 0 mm3
  Average Tumor Size (mm3) ± SEM on Day 22: 0 ± 0 mm3
  Average Tumor Size (mm3) ± SEM on Day 26: 0 ± 0 mm3
  Average Tumor Size (mm3) ± SEM on Day 29: 0 ± 0 mm3
  Average Tumor Size (mm3) ± SEM on Day 34: 0 ± 0 mm3
  Average Tumor Size (mm3) ± SEM on Day 39: 0 ± 0 mm3
  Average Tumor Size (mm3) ± SEM on Day 42: 0 ± 0 mm3
  Average Tumor Size (mm3) ± SEM on Day 46: 0 ± 0 mm3
  Average Tumor Size (mm3) ± SEM on Day 55: 0 ± 0 mm3
  Average Tumor Size (mm3) ± SEM on Day 60: 0 ± 0 mm3
